Laboratory results from patent US7662802B2, “Halide-free glucosamine-acidic drug complexes” (Gluconova, LLC, priority 2004, dated 2010).

Test: stability of halide-free glucosamine at ambient temperature and/or the atmosphere
Format: physicochemical

- hygroscopicity: quite hygroscopic
- stability on storage (subjected to ambient temperature and/or to the atmosphere): will decompose over a period of time
SMILES: N[C@H]1C(O)O[C@H](CO)[C@@H](O)[C@@H]1O (some centres unmarked) [halide-free glucosamine, glucosamine]
